Key:
[1] = test system: chicken chorioallantoic membrane (CAM); assay: Effect of LQC-T on CAM angiogenesis (CAM method, vessel count); format: in vivo; details: 20 μg/chicken embryo; for small vessel angiogenesis of CAM model, Medicine group (X ± S): 72 h incubation, number of small vessels, blank group 8.67 ± 1.03
Protocol: Embryonated chicken eggs of Lohmann of German, egg weight 50-60 g (embryo experiment center of Chinese Agriculture University)
LQC-T (1-6) (prepared by the methods of examples 2-7), wherein the purity was ≧98%, determined by high performance liquid chromatography (HPLC), meeting the requirements of the experiment. The powder was carefully sealed and preserved at 4° C.
Aseptic gelatin sponge, which was made into a wafer having a diameter of 5 mm by a hole-puncher in advance, was used as sample carrier. The prepared LQC-T series compounds were added according to 20 μg/chicken embryo in an aseptic environment. The 0.9% physiological saline was used in a blank group. The samples were air-dried in an aseptic environment.
A hatching egg after disinfection was put into a 37° C. incubation box with air sac upward until the seventh day of incubation. The egg embryo was disinfected using alcohol at a super clean bench, and then a small hole was drilled at the top of the egg embryo using a dental drill, and the nearby egg shell and shell membrane were removed carefully to form the opening with the size of about 1.2 cm×1.2 cm. After spotting the location for applying the sample, the air sac was broken with injection needle at the interface between air sac and the yolk and then 1-2 drops of aseptic physiological saline was injected so that the air sac membrane was separated from CAM membrane. Then the upper air sac membrane was slightly removed with a nipper to expose the lower CAM membrane.
The medicine-containing carrier was softly put by a nipper at the locations of CAM and yolk cyst membrane with fewer vessels, the opening was then sealed with aseptic transparent tape and incubation was continued for another 72 h.
After the incubation, the transparent tape blocking the chicken embryo air sac was removed with a nipper. The liquid of equal-volumetrically mixed methanol/acetone 1-2 ml was added and fixed at room temperature for 10 min. The CAM membrane was carefully removed and put it onto a slide. Then it was observed and a photograph was taken. The effect of the compounds on angiogenesis was evaluated by the count analytic method using the numbers of great vessels, medium vessels and small vessels arranged radially around by the carrier.
All the data were statistically analyzed using SPSS11.0 software pack. The difference between the administration group and the blank group was given through one-way variance analysis. P<0.05 had statistical significance.

[2] = test system: rat primary cortical neurons; assay: Proliferation of primary neuronal cells by MTT and morphology observation; format: cell-based; details: 60 μM; normal neurons; control 0.7567 ± 0.1109
Protocol: SD pregnant rats: pregnant for 16-18 d, certificate number: SCXK (Jing) 2006-0009, provided by BeiJing Vital River Laboratories.
LQC-T4 (prepared by the method of example 5), the purity was ≧98%, determined by high performance liquid chromatography (HPLC), which met the requirement of the experiment. The powder was carefully sealed and preserved at 4° C. The prepared LQC-T4 was dissolved using dimethyl sulfoxide and made into […] storing liquid for use.
Referring to the document [HongQingtao, TangYipeng, Neurons of cerebral cortex of newborn rats in in vitro primary culture, Chinese Journal of Neuroanatomy, 1994, 10(3):259-262], the pregnant 16-18 d SD rat was executed by dislocation. The fetal rat was taken out in an aseptic environment, the meninges and blood steak were stripped, the cortex was separated and cut into 1 mm^3 tissue block (all carried out on ice). The tissue block was digested at 37[…] with 0.1% pancreatic enzyme-0.02% EDTA for 20 min. Digesting was stopped using DMEM containing fetal calf serum and the number of the cells was adjusted to 5×10^5 cells ml^−1. The resultant cells were inoculated into a 96 well plate treated by 0.001% polylysine and the plate was put in a 37° C. 5% CO2 incubation box to be cultured. The cultivation liquid was changed (totally) after 48 h and add adenine arabinoside was added (final concentration is 5 μM) to inhibit the excessive proliferation of non-neurons. The cultivation liquid was changed after 48 h with fresh cultivation liquid and culture was continued. And the cultivation liquid was changed every 3 days afterward.
The cultivation liquid was sucked away on the eighth day of neuron culture. DMEM culture-medium containing 0.15% DMSO was added to the blank group, while 60 μM, 30 μM, 15 μM LQC-T4, 60 μM tetramethylpyrazine and 60 μM vanillic acid were respectively added to the administration group. Ten parallel wells were set as a group. And they were put into a 37° C., 5% CO2 incubation box to continue culturing for 24 h.
5 mg/ml MTT 20 μl was added to each well at the time of 4 h before the experiment ended and the cultivation liquid was sucked away. DMSO 200 μl was added to each well. When the purple particles were completely dissolved, the enzyme-linked immune assay was used to measure the optical density at 540 nm.
(§1) The SAS 8.2 statistical software was used to carry out the one-way ANOVA variance analysis and the difference among the groups were compared by t-test.

ICR mice = assay: Buccal respiration duration of mice after head cutting (4° C. icy water swimming model); format: in vivo, mouse; details: 80 mg/kg intragastrically once a day for 10 days, control 32.45 ± 5.49
Protocol: ICR mice, half female and half male, weighing 19-21 g, certificate No.: SCXK (Jing) 2006-0009, provided by BeiJing Vital River Laboratories.
LQC-T4, tetramethylpyrazine (TMP), vanillic acid, Nimodipine (ShanDong XinHua Pharmaceutical CO., Ltd, batch No.: 0908164)
160 male ICR mice were divided into 8 groups randomly by weight, each of which contained 20 mice, wherein 0.5% CMC-NA (0.2 ml·10 g^−1) was administrated intragastrically to the blank control group; 6.7 mg·kg^−1 Nimodipine (0.2 ml·10 g^−1) was administrated intragastrically to the positive control group; 100 mg·kg^−1 TMP (0.2 ml·10 g^−1) was administrated intragastrically to the TMP group, three different dosage of 200 mg·kg^−1, 100 mg·kg^−1, 50 mg·kg^−1 were administrated intragastrically to the LQC-T4 (0.2 ml·10 g^−1) group relatively, and 125 mg·kg^−1 TMP+80 mg·kg^−1 vanillitc acid (0.2 ml·10 g^−1) was administrated intragastrically respectively. The medicines were continuously administrated once a day for 10 days.
The literature was referred to: [LiuZhenquan, SunHui, Xuqiuping, etc., Experimental Study on the Brain-Protective Effect of the Effective Fraction of Naoxin Formula in the Mouse Model of with Load-Bearing Swimming in Cold Water, Journal of Beijing University of Traditional Chinese Medicine [J], 2004, 27(4): 54-56] and the method recorded therein was improved. The head was rapidly cut with a scissor at post mortem when the mouse swam in 4° C. icy water for 3 min after the final administration. After head being cut, the buccal respiration duration of mouse was recorded.
as §1

**Q.** With `COc1cc(C(=O)OCc2nc(C)c(C)nc2C)ccc1O` [LQC-T3, (3,5,6-trimethylpyrazine-2-yl)methyl-3-methoxy-4-hydroxybenzoate] as the compound, how does the “small vessel angiogenesis of CAM model, Medicine group (X ± S)” value (“small vessel angiogenesis of CAM model” below) [1] read?
**A.** 10.4 ± 2.16

**Q.** How did the “small vessel angiogenesis of CAM model” value [1] turn out when `Cc1nc(C)c(COC(=O)c2ccc(OCc3nc(C)c(C)nc3C)c(OCc3nc(C)c(C)nc3C)c2)nc1C` [LQC-T2, (3,5,6-trimethylpyrazine-2-yl)methyl-3,4-bis((3,5,6-trimethylpyrazine-2-yl)methoxy) benzoate] was run?
**A.** 14.17 ± 1.47

**Q.** And the “effect on growth of new (small) vessels compared with the blank group” value ([1]; result in words)?
**A.** significant promoting effect

**Q.** How did the “small vessel angiogenesis of CAM model” value [1] turn out when `Cc1nc(C)c(COC(=O)/C=C/c2ccc(OCc3nc(C)c(C)nc3C)c(OCc3nc(C)c(C)nc3C)c2)nc1C` [LQC-T6] was run?
**A.** 8.83 ± 3.71

**Q.** For `Cc1nc(C)c(COc2ccc(C=O)cc2OCc2nc(C)c(C)nc2C)nc1C` [LQC-T5, 3,4-bis((3,5,6-trimethylpyrazine-2-yl)methoxy)benzaldehyde], which “small vessel angiogenesis of CAM model” value [1] is on record?
**A.** 14.17 ± 5.19

**Q.** For “(3,5,6-trimethylpyrazin-2-yl)methyl 4-hydroxy-3-methoxybenzoate [LQC-T1]”, which “small vessel angiogenesis of CAM model” value [1] is on record?
**A.** 12.7 ± 2.73

**Q.** For `COc1cc(C(=O)O)ccc1O` [Vanillic acid, vanillic acid, reference compound], which “MTT(A540), 24 h after the administration” value [2] is on record?
**A.** 0.8820 ± 0.1469

**Q.** And the “respiration duration” value (ICR mice)?
**A.** 35.73 ± 5.66 s

— patent US8987449B2, “Medicine for treating ischemic brain injury and its sequelae, and preparation method thereof” (Haimin Lei, priority 2011, dated 2015)
